Experimental data as given in article PMC11637378, “Optogenetic screening of MCT1 activity implicates a cluster of non-steroidal anti-inflammatory drugs (NSAIDs) as inhibitors of lactate transport” (PLOS ONE, 2024).

Assays:
parent strain (SAWy518) [1] = tested on: parent strain (SAWy518)
parent strain (SAWy518) [2] = assay: microbe, parasite or virus in culture; design: species or system Saccharomyces cerevisiae SAWy518; Off-target growth counter-screen, OD600 as per cent of untreated wells, strain lacking MCT1; details: 18.5 h; sheet Primary Screen - final;; off-target growth of parent strain, about 18 h
Description: Cells were grown for 18 hours prior to OD measurement. Fill represents manual compound grouping based on compound class or target. OD600 is reported in Tecan units. […] The drug library used in this study for the initial screen and rescreen was provided by the Small Molecule Screening Center at Princeton University, through a collaboration with Dr. Hahn Kim. […] Follow-up analysis (IC50 determinations) on library compounds was performed using compounds purchased from outside sources. […] Stocks were then diluted 100-fold into media containing 0.01 OD600 inoculation of yeast, to achieve the final concentrations listed. Where compounds were added manually (for example 10 μM AZD3965 addition) stock concentrations were diluted by a factor of 100-fold regardless of scale, resulting in a final concentration of 1% v/v DMSO which is well tolerated by yeast.

| Compound | OffScreen_percentage (parent strain (SAWy518) [1]) | Offscreen_18hr (parent strain (SAWy518) [1]) | Offscreen_24hr (parent strain (SAWy518) [1]) | Offscreen_42hr (parent strain (SAWy518) [1]) | Read_percentage (parent strain (SAWy518) [1]) | viability at 10 µM (parent strain (SAWy518) [2]) |
| --- | --- | --- | --- | --- | --- | --- |
| CC(C)(C)CC(C)(C)c1ccc(OCCOCC[N+](C)(C)Cc2ccccc2)cc1 [Benzethonium] | 95.2045 percentage | 0.7683 | 0.892 | 0.9542 | 95.2045 percentage | 95.2% |
| COc1ccc(-c2coc3cc(O)cc(O)c3c2=O)cc1 [Biochanin A] | 98.1165 percentage | 0.7918 | 0.8858 | 0.9431 | 98.1165 percentage | 98.1% |
| O=C(/C=C/c1ccc(O)cc1)CC(=O)/C=C/c1ccc(O)cc1 [Bisdemethoxycurcumin] | 99.4424 percentage | 0.8025 | 0.8965 | 0.9569 | 99.4424 percentage | 99.4% |
| CCOc1nc2cccc(C(=O)OC(C)OC(=O)OC3CCCCC3)c2n1Cc1ccc(-c2ccccc2-c2nnn[nH]2)cc1 (stereo not drawn) [Candesartan Cilextil] | 98.0917 percentage | 0.7916 | 0.8922 | 0.95 | 98.0917 percentage | 98.1% |
| CC(C(=O)O)c1ccc2c(c1)[nH]c1ccc(Cl)cc12 (stereo not drawn) [Carprofen] | 90.223 percentage | 0.7281 | 0.8523 | 0.8964 | 90.223 percentage | 90.2% |
| CC(C)(Oc1ccc(C2CC2(Cl)Cl)cc1)C(=O)O (stereo not drawn) [Ciprofibrate] | 92.3916 percentage | 0.7456 | 0.866 | 0.9088 | 92.3916 percentage | 92.4% |
| C=CC(C1=CC(=O)C=CC1=O)c1ccccc1 (stereo not drawn) [Dalbergione] | 104.3 percentage | 0.8417 | 0.9214 | 0.9762 | 104.3 percentage | 104% |
| O=C(O)c1ccc(-n2nc(-c3ccccc3O)nc2-c2ccccc2O)cc1 [Deferasirox] | 95.9727 percentage | 0.7745 | 0.8724 | 0.9291 | 95.9727 percentage | 96% |
| COc1ccc2c(c1)OCc1c-2oc2cc(OC)ccc12 [Dehydrovariabilin] | 93.7794 percentage | 0.7568 | 0.8766 | 0.938 | 93.7794 percentage | 93.8% |
| N#CC(c1ccc(Cl)cc1)c1c(Cl)cc(-n2ncc(=O)[nH]c2=O)cc1Cl (stereo not drawn) [Diclazuril] | 92.7138 percentage | 0.7482 | 0.8733 | 0.9299 | 92.7138 percentage | 92.7% |
| C/C=C(/C(=C/C)c1ccc(O)cc1)c1ccc(O)cc1 [Dienestrol] | 99.2565 percentage | 0.801 | 0.8973 | 0.9599 | 99.2565 percentage | 99.3% |
| CC/C(=C(/CC)c1ccc(O)cc1)c1ccc(O)cc1 [Diethylstilbestrol] | 102.565 percentage | 0.8277 | 0.9171 | 0.9776 | 102.565 percentage | 103% |
| C[C@@H]1CC[C@@]2(OC1)O[C@H]1[C@@H](O)[C@H]3[C@@H]4CC[C@H]5C[C@@H](O[C@@H]6O[C@H](CO)[C@H](O[C@@H]7O[C@H](CO)[C@@H](O)[C@H](O[C@@H]8OC[C@@H](O)[C@H](O)[C@H]8O)[C@H]7O[C@@H]7O[C@H](CO)[C@H](O)[C@H](O[C@@H]8O[C@H](CO)[C@@H](O)[C@H](O)[C@H]8O)[C@H]7O)[C@H](O)[C@H]6O)[C@H](O)C[C@]5(C)[C@H]4CC[C@]3(C)[C@H]1[C@@H]2C [Digitonin] | 103.408 percentage | 0.8345 | 0.9181 | 0.9758 | 103.408 percentage | 103% |
| O=C1Nc2ccc(Cl)cc2[C@@](C#CC2CC2)(C(F)(F)F)O1 [Efavirenz] | 96.803 percentage | 0.7812 | 0.8701 | 0.9373 | 96.803 percentage | 96.8% |
| C=CCOC(Cn1ccnc1)c1ccc(Cl)cc1Cl (stereo not drawn) [Enilconazole] | 100.372 percentage | 0.81 | 0.8908 | 0.9485 | 100.372 percentage | 100% |
| COc1cccc2c1[C@@H]1CN(CCCCn3c(=O)[nH]c4c(sc5ncc(-c6ccccc6)nc54)c3=O)C[C@@H]1CO2 [Fiduxosin] | 97.5341 percentage | 0.7871 | 0.8863 | 0.944 | 97.5341 percentage | 97.5% |
| OC(Cn1cncn1)(Cn1cncn1)c1ccc(F)cc1F [Fluconazole] | 99.6283 percentage | 0.804 | 0.8953 | 0.9483 | 99.6283 percentage | 99.6% |
| CC1(C)O[C@@H]2C[C@H]3[C@@H]4C[C@H](F)C5=CC(=O)C=C[C@]5(C)[C@H]4[C@@H](O)C[C@]3(C)[C@]2(C(=O)CO)O1 [Flunisolide] | 95.601 percentage | 0.7715 | 0.8893 | 0.9469 | 95.601 percentage | 95.6% |
| CCn1cc(-c2ccnc3[nH]c(-c4cccc(CN(C)C)c4)cc23)c(-c2ccc(NC(=O)N(C)C)cc2)n1 [GSK1070916] | 97.373 percentage | 0.7858 | 0.8818 | 0.9396 | 97.373 percentage | 97.4% |
| COc1ncc(-c2ccc3nccc(-c4ccnnc4)c3c2)cc1NS(=O)(=O)c1ccc(F)cc1F [GSK2126458] | 90.1487 percentage | 0.7275 | 0.8997 | 0.9503 | 90.1487 percentage | 90.1% |
| Cc1ccc(C(=O)Nc2ccc(CN3CCN(C)CC3)c(C(F)(F)F)c2)cc1C#Cc1cnc2[nH]ncc2c1 [GZD824] | 97.8563 percentage | 0.7897 | 0.9473 | 1.0006 | 97.8563 percentage | 97.9% |
| O=c1c(-c2ccc(O)cc2)coc2cc(O)cc(O)c12 [Genistein] | 100.644 percentage | 0.8122 | 0.8948 | 0.9535 | 100.644 percentage | 101% |
| CC[C@H](c1ccc(O)cc1)[C@@H](CC)c1ccc(O)cc1 [Hexestrol] | 99.6654 percentage | 0.8043 | 0.9011 | 0.9595 | 99.6654 percentage | 99.7% |
